{
  "source": "patent US20240216407A1",
  "about": "“NOVEL POLYPHENOL COMPOUND” (NABOCUL COSMETICS CO., LTD., priority 2021, published 2024)",
  "system": "collagen gene (COL1A1 gene)",
  "test": "Promotion of collagen gene (COL1A1) mRNA expression in HaCaT cells, real-time PCR (QPCR)",
  "format": "cell-based, human",
  "details": "for increase of the expression level of the collagen gene (COL1A1 mRNA) compared to the control: 24 hours culture",
  "description": "The OLANDU obtained in Example 2 was used to examine the effect of promoting the expression of collagen gene (COL1A1 gene) in a HaCaT cell that is a human epidermis-derived keratinocyte cell line.\nFirst, the HaCaT cells were cultured in a DMEM medium (containing 10% FBS, 100 U/mL penicillin and […] streptomycin) in the presence of 5% CO2 at 37° C. and saturated humidity. Next, the HaCaT cells adjusted to a cell concentration of 5×10^5 cells/mL were seeded in each well of a 6-well cell culture plate and cultured in a CO2 incubator (5% CO2, 37° C.) for 24 hours. Thereafter, the OLANDU isolated in Example 2 was added to each well to provide a final concentration different from each other. Specifically, the final concentrations of OLANDU in the HaCaT cell culture medium were 1 μM, 5 μM, 10 μM, 50 μM and 100 μM, respectively. A well to which the OLANDU had not been added was used as a control (0 μM). After addition, they were subjected to culture for 24 hours.\nAfter completion of the culture, the HaCaT cells were collected from each well, and total RNA was extracted with an RNA extraction reagent (RNAzol®, a product available from Molecular Research Center, Inc.). The concentration of total RNA obtained by extraction was confirmed with an ultratrace spectrophotometer (NanoDrop; a product available from Thermo Fisher Scientific). To this total RNA were added an oligo dT primer, a dNTP Mix, a 5×1st strand buffer, an RNase inhibitor, DTT and an M-MLV reverse transcriptase to synthesize cDNA from the total RNA. This cDNA was subjected to real-time PCR (QPCR) to measure the expression level of the collagen gene.\nQPCR was performed with a commercially available QPCR reagent kit and QPCR measurement device (LightCycler® 480; a product available from Roche Diagnostics K. K.), and the detection was performed with SYBR® Green that is a double-stranded DNA-binding fluorescent dye. The COL1A1 gene encoding the α1 chain of type I collagen was selected as a target gene, and the primers of SEQ ID NOs: 1 and 2 shown in Table 1 below were used as QPCR primers. […]",
  "data": [
    {"smiles": "COc1ccc(/C=C/C(=O)OC[C@H]2O[C@H](OC(=O)c3cc(O)c(O)c(O)c3)[C@H](O)[C@@H](O)[C@@H]2O)cc1O", "note": "[OLANDU]", "values": [
      {"measurement": "increase of the expression level of the collagen gene (COL1A1 mRNA) compared to the control", "setting": "OLANDU 1 μM, control = 100", "value": "approximately two-fold"},
      {"measurement": "increase of the expression level of the collagen gene (COL1A1 mRNA) compared to the control", "setting": "OLANDU 10 μM, control = 100, highest expression-promoting action", "value": "more than three-fold"},
      {"measurement": "expression level of the collagen gene (COL1A1 mRNA) compared to the control without OLANDU", "setting": "OLANDU 1, 5, 10, 50 and 100 μM, 24 hours culture (FIG. 11)", "value": "greatly increased the expression level of the collagen gene"}
    ]}
  ]
}
